Test results from article PMC3671111, “A Phase I, open-label, randomized, crossover study in three parallel groups to evaluate the effect of Rifampicin, Ketoconazole, and Omeprazole on the pharmacokinetics of THC/CBD oromucosal spray in healthy volunteers” (SpringerPlus, 2013).
“And” between values parts separate entries of the source, which are not always exact repeats. Equal values may be shown once. Marks after values point to notes of the source that are not given here.

Assays:
[1] = male, human, in vivo, 5 days
[2] = in normal dosing; approximately; no reference given; cited from earlier work
[3] = Phase I drug-drug interaction PK, Group 2: THC/CBD spray alone or with ketoconazole, plasma by GC-MS; design: k el: dose or concentration left out as unconfirmed; conditions: for CL/F / Varea/F: mean (SD)
Description: (§1) Subjects received rifampicin on Days 1-9. […] Subjects received ketoconazole on Days 1-4.
(§2) Blood samples were collected at specified times and stored on ice (except rifampicin PK samples which were stored in iced water) prior to processing and storage. Plasma samples were separated by centrifugation (approximately 2500 rpm × 15 minutes at 4°C). Samples were stored in 4 mL amber glass screw top glass vials with PTFE lined screw caps labelled with Guys Drug Research (Quintiles Limited) labels. The aliquots were stored in clearly labelled containers in a freezer set at or below -20°C, until shipped for assay. Samples were shipped on dry ice at the appropriate time-points.
(§3) The assay validation was undertaken by Advanced Bioanalytical Service Laboratories (London, UK), who developed the technique after reviewing the literature, which was based on the methodology adopted by three different groups (Foltz et al. [1983]; Goodall & Basteyns [1995]; Kemp et al. [1995]), and designed with reference to FDA guidelines for industry (FDA Guidance for Industry [2012]). The method utilised protein precipitation, solvent extraction and derivatisation for the sample preparation and then sample analysis by capillary gas chromatography and detection by a mass spectrometer (GC-MS). The validation procedure investigated the calibration model with the best regression fit over the concentration range 0.1 - 100 ng/mL for CBD, THC and 11-OH-THC, as well as precision and accuracy of the method, stability, carry-over, and specificity.
(§4) Human plasma from healthy volunteers was used to prepare the standards and quality control (QC) samples, with analytes extracted using hexane/ethyl acetate (7:1 ratio), derivatised with N,O-Bis(trimethylsilyl)trifluoroacetamide. Analytic grade THC (Sigma, UK), CBD (Sigma, UK) and 11-OH-THC (Radian International and Cerillant, UK) were obtained, and three sets of CBD, THC and 11-OH-THC were used to support the study. Deuterated THC-d3 (Sigma, UK) was used as the internal standard. The GC-MS equipment was a Hewlett Packard 6890 Gas Chromatograph attached to a Hewlett Packard 5973 Mass Selective Detector. Data handling was carried out using an MS Chemstation System and the peak area ratio of the analytes to the internal standard was calculated in Excel (2000). The concentrations were calculated from the ratio data using least squares ln(y) on ln(x) regression performed in Excel (2000), and were then checked manually. Regression analysis was undertaken to find the regression model that best described the calibration data (for details, see ([Miller & Miller 1992])).
(§5) A 0.5 mL aliquot of test sample, QC or blank plasma was placed into a test tube. The blank plasma was spiked with 50 μL of the appropriate standard solution to produce the calibration standards. 50 μL of the internal standard was added to each test tube. The samples were then diluted by the addition of 500 μL of 0.1% (w/v) ascorbic acid and the protein precipitated by the addition of 1.0 mL of acetonitrile. The proteins were removed by centrifugation and the supernatant concentrated to 1 mL using nitrogen at 50 °C. The samples were then basified by the addition of 300 μL of 5M sodium hydroxide and the analytes extracted by the addition of 2.0 mL of 7:1 hexane:ethyl acetate. After mixing for 16 minutes the tubes were centrifuged and the top layer transferred into clean 3 dram vials. The solvent was removed using nitrogen at 70 °C and the dried extract resuspended in 100 μL of BSTFA and transferred to microvials, capped and placed at 70 °C for 30 minutes to derivatise the analytes. The microvials were then cooled and loaded onto the autosampler tray for analysis where 1 μL was injected onto the GC-MS system.

[4] = Peak plasma concentration of CBD in normal dosing
Description: However, to investigate the potential interactions of THC and CBD with drugs which also interact with the CYP450s CYP3A4 and CYP2C19, various known inducers/inhibitors of these isoenzymes were employed and the pharmacokinetics (PKs) of their co-administration with THC/CBD spray evaluated.

[5] = Phase I drug-drug interaction PK, Group 1: THC/CBD spray alone or with rifampicin, plasma by GC-MS; design: k el / half-life: dose or concentration left out as unconfirmed; conditions: for CL/F / Varea/F: n = 12, mean (SD)
Description: as §1, §2, §3, §4, §5

[6] = Phase I drug-drug interaction PK, Group 3: THC/CBD spray alone or with omeprazole, plasma by GC-MS; conditions: for CL/F / Varea/F: n = 12, mean (SD); for Cmax and AUC % Co-efficient of Variation (CV%) range: inter-subject variability
Description: as §1, §2, §3, §4, §5

[7] = system: CYP3A4; design: method as in GW unpublished data; conditions: one range printed for CYP3A4 and CYP2C19; ref GW unpublished data; read-out: IC50, inhibitory effect on CYP3A4; cited from earlier work
[8] = system: CYP2C19; design: method as in GW unpublished data; conditions: one range printed for CYP3A4 and CYP2C19; ref GW unpublished data; read-out: IC50, inhibitory effect on CYP2C19; cited from earlier work
[9] = Ketoconazole and THC/CBD spray vs THC/CBD spray alone, no-interaction range 0.80 to 1.25
[10] = THC/CBD spray 4 sprays and ketoconazole 400 mg at end of 5-day dosing period, n = 11, plasma
[11] = THC/CBD spray alone, single dose 4 sprays (10.8/10 mg), ketoconazole group, n = 12, plasma
[12] = THC/CBD spray co-administered with ketoconazole vs alone
[13] = Rifampicin and THC/CBD spray vs THC/CBD spray alone, no-interaction range 0.80 to 1.25
[14] = THC/CBD spray 4 sprays and rifampicin 600 mg after repeated daily dosing, plasma
[15] = THC/CBD spray alone, single dose 4 sprays (10.8/10 mg), rifampicin group, plasma
[16] = THC/CBD spray co-administered with rifampicin vs alone
[17] = Omeprazole and THC/CBD spray vs THC/CBD spray alone, no-interaction range 0.80 to 1.25
[18] = THC/CBD spray 4 sprays and omeprazole 40 mg at end of 6-day dosing period, plasma
[19] = THC/CBD spray alone, single dose 4 sprays (10.8/10 mg), omeprazole group, plasma
[20] = THC/CBD spray co-administered with omeprazole vs alone
[21] = male, human, plasma, oral, 40 mg

## COc1ccc2[nH]c([S+]([O-])Cc3ncc(C)c(OC)c3C)nc2c1 (stereo not drawn) [Omeprazole, omeprazole]
[1]
  Dizziness (TEAE): 0 No. of subjects (%)
  Dizziness postural (TEAE): 0 No. of subjects (%)
  Dry mouth (TEAE): 0 No. of subjects (%)
  Headache (TEAE): 1 (8) No. of subjects (%)
  Somnolence (TEAE): 0 No. of subjects (%)

## C=C(C)[C@@H]1CCC(C)=C[C@H]1c1c(O)cc(CCCCC)cc1O [CBD, cannabidiol]
[2]
  Peak plasma concentrations: […]
[3]; [9]
  Geometric mean ratio of AUC(0-inf), point estimate: […]
  Geometric mean ratio of AUC(0-t), point estimate: […]
  Geometric mean ratio of Cmax, point estimate: […]
[3]; [10]
  CL/F: […]
  Varea/F: […]
[3]; [11]
  CL/F: […]
  Varea/F: […]
[3]; [12]
  % change in mean Tmax: […]
  % change in t1/2: […]
[3]; THC/CBD spray with ketoconazole vs THC/CBD spray alone
  Change in mean Cmax: […]
[3]; co-administered with ketoconazole vs THC/CBD spray alone
  Change in mean CL/F: […]
[3]; male, human, plasma, oral
  AUC(0-inf): […]
  AUC(0-t): […]
  Cmax: […]
  k el: […]
[3]; suggested by increased exposure with ketoconazole
  Substrate for the isoenzyme CYP3A4 (conclusion from ketoconazole interaction): substrates
[4]
  Peak plasma concentration, fold lower than the levels at which CYP inhibition may be anticipated: […]
[5]; [13]
  Geometric mean ratio of AUC(0-inf), point estimate: […]
  Geometric mean ratio of AUC(0-t), point estimate: […]
  Geometric mean ratio of Cmax, point estimate: […]
[5]; [14]
  CL/F: […]
  Varea/F: […]
[5]; [15]
  CL/F: […]
  Varea/F: […]
[5]; [16]
  % change in mean t1/2: […]
  % change in median Tmax: […]
[5]; THC/CBD spray with rifampicin vs THC/CBD spray alone
  Change in mean Cmax: […]
[5]; after multiple dose rifampicin treatment vs THC/CBD spray alone
  Change in mean CL/F: +112%
[5]; male, human, plasma
  AUC(0-inf): […]
  AUC(0-t): […]
  Cmax: […]
  Tmax: […]
  half-life: […]
  k el: […]
[5]; male, human, plasma, oral
  Tmax: […]
  half-life: […]
[6]; [17]
  Geometric mean ratio of AUC(0-inf), point estimate: […]
  Geometric mean ratio of AUC(0-t), point estimate: […]
  Geometric mean ratio of Cmax, point estimate: […]
[6]; [18]
  CL/F: […]
  Varea/F: […]
[6]; [19]
  CL/F: […]
  Varea/F: […]
[6]; THC/CBD spray at end of 6-day omeprazole dosing
  Plasma concentrations and PK parameters compared with THC/CBD spray alone: […]
[6]; [20]
  % change in Tmax: […]
  % change in t1/2: […]
[6]; THC/CBD spray with omeprazole vs alone
  Differences in CL/F on co-administration with omeprazole: […]
[6]; at the clinically relevant dose of THC/CBD spray investigated
  Substrate for the isoenzyme CYP2C19 (conclusion from omeprazole interaction): not substrates
[6]; THC/CBD spray alone, omeprazole group
  Cmax and AUC % Co-efficient of Variation (CV%) range: […]
[6]; THC/CBD spray in combination with omeprazole
  Cmax and AUC % Co-efficient of Variation (CV%) range: […]
[6]; male, human, plasma, oral
  Tmax: […]
  half-life: […]
[6]; [21]
  Cmax: 0.73 ng/mL
[7]
  IC50: […]
[8]
  IC50: […]
